From PubChem BioAssay (NCI) come the findings set out here.

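In this assay, cells in 96-well plates receive the compound at five concentrations for 48 hours. Endpoints are linearly interpolated between the surrounding concentrations. Abbreviation: GI50, concentration required for 50% inhibition of growth. TGI: total growth inhibition.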

Common to all, as to assay: DTP human tumour cell line panel, 48 h
The subject of test [1] is SK-MEL-5 melanoma.
For test [2], the system named is NCI-H226 lung.
For test [3], the system named is SF-539 CNS.
The subject of test [4] is NCI-H460 lung.
For test [5], the system named is NCI-H23 lung.
For test [6], the system named is OVCAR-5 ovarian.
The subject of test [7] is SW-620 colon.
For test [8], the system named is OVCAR-3 ovarian.
The test system of test [9] is HS 578T breast.
Test [10] concerns MALME-3M melanoma.

One may read the GI50 as the concentration that inhibits growth by half. What is called TGI is the concentration giving total growth inhibition. The low end stands for greater sensitivity of the cells, the high end for lower sensitivity of the cells. In the case of `O=Cc1cn(Cc2cccc(Cl)c2)c2ccccc12`, the GI50 was 4.1 µM in [1]; 14.7 µM in [3]; less than 0.0112 µM in test [4]; 9.33 µM in test [5]; 0.0263 µM in [6]; 7.37 µM in [7]. Also, the GI50 in test [8] was 2.7 µM; in test [9], 7.27 µM; in [10], 13.5 µM. Also, the TGI was determined as 17.4 µM in test [1]; 0.0499 µM in test [2]; 28 µM in test [3]; 15.5 µM in test [4]; 26.9 µM in test [5]; 0.504 µM in test [6]. The TGI was 23.1 µM in [7], 16.6 µM in test [8], 34.1 µM in [9] and 33.8 µM in test [10].
As to `O=C1/C(=C/c2ccc([N+](=O)[O-])o2)Oc2ccc(Br)cc21`, the GI50 is 2.67 µM in test [1]; 2.12 µM in test [2]; 1.89 µM in test [3]; 10.6 µM in test [4]; 6.76 µM in test [5]; 2.57 µM in test [6]. Further, the GI50 in test [7] was 1.69 µM; in [8], 1.99 µM; in test [9] it was 3.91 µM; in [10] it was 1.92 µM. Moreover, the total growth inhibition concentration (TGI) stood at 8.17 µM in test [1]; 5.37 µM in [2]; 4.19 µM in test [3]; 24.2 µM in test [4]; 23.1 µM in [5]; 9.17 µM in test [6]. Further, the TGI in test [7] stood at 3.23 µM; in [8], 3.56 µM; in test [9] it was 26.9 µM; in test [10] it was 4.74 µM.
Turning to `NC(=O)c1cc([N+](=O)[O-])c(Cl)c([N+](=O)[O-])c1`, the GI50 in [1] is 5.59 µM; in [2], 1.68 µM; in test [3] it was 2.02 µM; in [4], 15.7 µM; in test [5], 2.78 µM; in test [6] it was 5.53 µM. Further, the GI50 in [7] is 1.9 µM; in test [8], 1.97 µM; in [9] it was 11.9 µM; in test [10], 2.27 µM. The TGI turned out to be 18 µM in test [1]; 3.22 µM in [2]; 4 µM in test [3]; 38.2 µM in test [4]; 8.32 µM in test [5]; 17.6 µM in test [6]. Further, the concentration for total growth inhibition (TGI) in test [7] stood at 3.99 µM; in test [8] it was 3.51 µM; in [9] it was 29.4 µM; in test [10], 4.54 µM.
`Cc1nc2sc(C(=O)Nc3cccc4ccccc34)c(N)c2cc1C(=O)/C=C/c1ccccc1`: the GI50 in [1] was 0.379 µM; in test [2] it was 0.389 µM; in test [3], 0.265 µM; in test [4], 0.411 µM; in [5] it was 0.862 µM; in test [6] it was 0.813 µM. Also, the 50% growth inhibitory concentration (GI50) in test [7] is 0.21 µM; in [8], 0.181 µM; in [9], 0.281 µM; in test [10] it was 0.343 µM. In addition, the TGI in test [1] was found to be 1.69 µM; in test [2], 1.56 µM; in test [3] it was 1.16 µM; in test [4], 2.34 µM; in [5] it was 4.07 µM; in test [6], 2.61 µM. In addition, the TGI was 1.66 µM in test [7], 0.593 µM in test [8], greater than 50 µM in test [9] and greater than 34.9 µM in [10].
As to `C/C([O-])=C1\Cc2ccccc2C1=O.C/C([O-])=C1\Cc2ccccc2C1=O.CC[O-].CC[O-].[Ti+4]`, the GI50 in test [1] is 19.3 µM; in [2] it was 7.47 µM; in test [3], 13.6 µM; in test [4], 10.3 µM; in test [5] it was 20.2 µM; in test [6], 30.5 µM. For the same compound, the GI50 in test [7] is 24.8 µM; in test [8], 24 µM; in test [9] it was 11.7 µM; in test [10], 18.8 µM. The TGI in test [1] was greater than 57.8 µM; in test [2] it was 35.7 µM; in test [3], 33.1 µM; in [4], 44.7 µM; in test [5], 62.2 µM; in test [6], 72.9 µM. In addition, the total growth inhibition concentration (TGI) in test [7] was greater than 84.9 µM; in test [8] it was greater than 100 µM; in [9] it was 47.2 µM; in test [10], greater than 59.8 µM.
As to `CC(C)[C@@]12C[C@@H](OC(=O)COC(=O)/C=C/c3ccccc3)[C@@](C)(O1)[C@@H]1CC[C@@H](C)[C@H]1[C@@H]2OC(=O)/C=C/c1ccccc1`, the GI50 in test [1], in test [2], in [3], in [4], in [5] and in test [6] was greater than 100 µM throughout. The GI50 is greater than 100 µM in test [7], greater than 100 µM in test [8], 0.0187 µM in test [9] and greater than 100 µM in test [10]. Besides, the concentration for total growth inhibition (TGI) in test [1], in test [2], in test [3], in test [4], in test [5] and in [6] was greater than 100 µM each time. Besides, the TGI was greater than 100 µM in test [7], greater than 100 µM in test [8], 0.0774 µM in test [9] and greater than 100 µM in [10].
On to `CCc1ccccc1N1CCN(C(=O)c2cc(OC)c(OC)c(OC)c2)CC1`, for which the total growth inhibition concentration (TGI) in [1] is 3.79 µM; in test [2] it was 5.6 µM; in test [3] it was 0.12 µM; in test [4] it was 2.8 µM; in test [5], 23.3 µM; in test [6] it was greater than 100 µM. Besides, the concentration for total growth inhibition (TGI) in [7] was greater than 100 µM; in [8], 0.463 µM; in [9], 0.0608 µM; in [10], 55.9 µM.
